± gives the expanded uncertainty stated by the source.
How the values were obtained:
[1] = Fluid (supercritical or subcritical phases), Vibrating tube method
[2] = xn = mol fraction of the nth substance listed; conditions: Fluid (supercritical or subcritical phases), Vibrating tube method, x2 = 0

O=C=O [carbon dioxide]
mass density [kg/m3], [1]
Conditions | 10000 kPa | 15000 kPa | 20000 kPa | 30000 kPa | 40000 kPa
308.15 K | 717.2 ± 2.1 | 816.1 ± 1.6 | 866.1 ± 1 | 929 ± 0.8 | 971.7 ± 0.7
313.15 K | 636.6 ± 3.3 | 781.3 ± 2.1 | 840.2 ± 1 | 909.7 ± 0.9 | 955.5 ± 0.8
323.15 K | 397.3 ± 5.2 | 701.8 ± 3.9 | 784.9 ± 1.3 | 870.3 ± 0.9 | 922.8 ± 0.8
333.15 K | 296.1 ± 6.3 | 607 ± 4.4 | 724.4 ± 1.6 | 829.6 ± 1.1 | 889.8 ± 0.9

O=C=O [carbon dioxide] + CC1=C(/C=C/C(C)=C/C=C/C(C)=C/C=C/C=C(C)/C=C/C=C(C)/C=C/C2=C(C)CCCC2(C)C)C(C)(C)CCC1
mass density [kg/m3], [2]
Conditions | 10000 kPa | 15000 kPa | 20000 kPa | 30000 kPa | 40000 kPa
308.15 K | 717.2 ± 2.1 | 816.1 ± 1.6 | 866.1 ± 1 | 929 ± 0.8 | 971.7 ± 0.7
313.15 K | 636.6 ± 3.3 | 781.3 ± 2.1 | 840.2 ± 1 | 909.7 ± 0.9 | 955.5 ± 0.8
323.15 K | 397.3 ± 5.2 | 701.8 ± 3.9 | 784.9 ± 1.3 | 870.3 ± 0.9 | 922.8 ± 0.8
333.15 K | 296.1 ± 6.3 | 607 ± 4.4 | 724.4 ± 1.6 | 829.6 ± 1.1 | 889.8 ± 0.9

— the NIST ThermoML archive (doi:10.1021/je700373r)
